Measured values as given in patent US20090298805A1, “TOPICAL PYRITHIONE COMPOSITIONS AND METHODS FOR TREATMENT OF NAIL FUNGUS” (priority 2008, published 2009).

Experiments:
T. mentagrophytes = test: Formulations applied to artificial nail (IMS VITRO-NAILS), zone of inhibition; type: cell-based, Trichophyton mentagrophytes
From the text: Each test formulation (50 microliters) was pipetted onto sterile ½ inch paper disks and was allowed to air dry. Spore suspensions of Trichophyton mentagrophytes and Trichophyton rubrum, were made using standard microbiological techniques. The resulting suspensions contained approximately 10,000,000 spores per milliliter. Sterile swabs were used to distribute the spore suspensions over the surface of Potato Dextrose Agar plates and one sample disk was placed in the center of each plate. As an additional test, a synthetic nail substrate, IMS VITRO-NAILS, was used to simulate permeation of the active through a human nail. This material is reported to have the wetting properties, thickness and flexibility of human nails. This experiment was conducted in the same manner as first experiment above, except that the formulations were pipetted onto ¾-1 inch squares of VITRO-NAILS and either allowed to dry for 2 days before testing or place directly on the inoculated agar plates while wet.

Trichophyton rubrum = test: Microbiology efficacy test, formulations applied to paper disks, zone of inhibition; type: cell-based; settings: T. rubrum; 50 microliters on 1/2 inch paper disk, air dried; Potato Dextrose Agar; average results
From the text: (§1) Each test formulation (50 microliters) was pipetted onto sterile ½ inch paper disks and was allowed to air dry. Spore suspensions of Trichophyton mentagrophytes and Trichophyton rubrum, were made using standard microbiological techniques. The resulting suspensions contained approximately 10,000,000 spores per milliliter. Sterile swabs were used to distribute the spore suspensions over the surface of Potato Dextrose Agar plates and one sample disk was placed in the center of each plate.

[1] = system: Trichophyton mentagrophytes; test: as above; type: cell-based; settings: T. mentagrophytes; 50 microliters on 1/2 inch paper disk, air dried; Potato Dextrose Agar; average results
From the text: as §1

Cc1cc(C2CCCCC2)n(O)c(=O)c1 [Ciclopirox]
Zone of Inhibition, Tested Dry (T. mentagrophytes; allowed to dry for 2 days before testing): 8.75 mm
Zone of Inhibition, Tested Wet (T. mentagrophytes; placed directly on inoculated agar plates while wet): 9 mm
Zone of Inhibition (Trichophyton rubrum): 19.0 mm
Zone of Inhibition [1]: 16.0 mm
